Test results: patent US11000033B2, “Ketone or oxime compound, and herbicide” (NISSAN CHEMICAL CORPORATION, priority 2014, dated 2021)

Legend:
Format in all cases: in vivo
Scirpus juncoides [1] = assay: Test Example 1: herbicidal activity, application before weed generation in submerged conditions (symbol B); conditions: application herbicide amount 320 g/ha
Outline: (§1)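 In a flooded pot test with alluvial soil, the emulsion-formulated compound was diluted with water to a predetermined amount and applied to the floodwater immediately on the sowing day. Pots were held in a greenhouse at 25–30 °C for 3 weeks before each weed was rated.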

Monochoria vaginalis = assay: Test Example 1: herbicidal activity, application before weed generation in submerged conditions (symbol C); conditions: application herbicide amount 320 g/ha
Outline: as §1

Scirpus juncoides [2] = assay: Test Example 2: herbicidal activity, application during weed generation in submerged conditions (symbol B); conditions: Table 23; application herbicide amount 320 g/ha; grade 0-5 by criteria of Test Example 1
Outline: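 Steps: fill pots with alluvial soil; add water to 4 cm depth; co-sow the three weeds; grow at 25° C. to 30° C. under glass; at 1–2 leaves, dose the floodwater with diluted emulsion; rate damage visually after 3 weeks.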

Avena fatua = assay: Test Example 4: herbicidal effect by soil treatment (symbol I); conditions: application herbicide amount 320 g/ha
Outline: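 Seeds were sown in sterilized diluvial soil, covered with about 1.5 cm of soil, and the soil surface was sprayed with a water-diluted emulsion of the compound at a predetermined rate. Plants grew in a greenhouse at 25° C. to 30° C.; effects were scored visually 3 weeks after application.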

corn [3] = assay: Test Example 4: effect on crop by soil treatment (symbol c); conditions: application herbicide amount 320 g/ha
Outline: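 Diluvial soil (sterilized) in boxes; seeds placed spot-wise alongside weed species; ~1.5 cm covering soil. Greenhouse, 25–30° C.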

rice = assay: Test Example 4: effect on crop by soil treatment (symbol b); conditions: application herbicide amount 320 g/ha
Outline: (§2)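 Soil-treatment setup: crop and weed seeds were spot-sown into sterilized diluvial soil, then buried beneath approximately 1.5 cm of it, and the boxes were housed in a 25–30° C. greenhouse.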

rapeseed = assay: Test Example 4: effect on crop by soil treatment (symbol g); conditions: application herbicide amount 320 g/ha
Outline: as §2

Digitaria ciliaris = assay: Test Example 5: herbicidal effect by foliage application, plastic box (symbol F); conditions: 320 g/ha, 3 weeks after application
Outline: (§3)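 Leaf-applied emulsion, water-diluted to a preset herbicide dose, on two-week-old seedlings raised in a 25° C. to 30° C. greenhouse; injury rated at 3 weeks using earlier criteria.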

Lolium multiflorum Lam. = assay: Test Example 5: herbicidal effect by foliage application, plastic box (symbol K); conditions: 320 g/ha, 3 weeks after application
Outline: as §3

Galium spurium = assay: Test Example 5: herbicidal effect by foliage application, plastic box (symbol Q); conditions: 320 g/ha, 3 weeks after application
Outline: as §3

Veronica persica = assay: Test Example 5: herbicidal effect by foliage application, plastic box (symbol R); conditions: 320 g/ha, 3 weeks after application
Outline: as §3

corn [4] = assay: Test Example 5: effect on crop by foliage application, plastic box (symbol c); conditions: 320 g/ha, 3 weeks after application
Outline: (§4)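 Box culture: sterile diluvial soil, seeds spot-sown, ~1.5 cm cover, raised under glass at 25–30° C.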

soybean = assay: Test Example 5: effect on crop by foliage application, plastic box (symbol d); conditions: 320 g/ha, 3 weeks after application
Outline: as §4

Chenopodium album = assay: Test Example 5: herbicidal effect by foliage application, plastic box (symbol O); conditions: 320 g/ha, 3 weeks after application
Outline: as §3

SMILES	Herbicidal effect grade, B: Scirpus juncoides (Scirpus juncoides [1])	Herbicidal effect grade, C: Monochoria vaginalis (Monochoria vaginalis)	Herbicidal effect grade, B: Scirpus juncoides (Scirpus juncoides [2])	I (Avena fatua) herbicidal effect grade (Avena fatua)	c (corn) effect on crop grade (corn [3])	b (directly sowed rice plant) effect on crop grade (rice)	g (rapeseed) effect on crop grade (rapeseed)	F: Digitaria ciliaris, herbicidal effect grade (Digitaria ciliaris)	K: Lolium multiflorum Lam., herbicidal effect grade (Lolium multiflorum Lam.)	Q: Galium spurium, herbicidal effect grade (Galium spurium)	R: Veronica persica, herbicidal effect grade (Veronica persica)	c: corn, effect on crop grade (corn [4])	d: soybean, effect on crop grade (soybean)	K: Lolium multiflorum Lam., herbicidal effect (criteria of Test Example 1) (Lolium multiflorum Lam.)	Q: Galium spurium, herbicidal effect (criteria of Test Example 1) (Galium spurium)	R: Veronica persica, herbicidal effect (criteria of Test Example 1) (Veronica persica)	Herbicidal effect grade, I: Avena fatua (Avena fatua)	Effect on crop grade, c: corn (corn [3])	Effect on crop grade, b: directly sowed rice plant (rice)	Effect on crop grade, g: rapeseed (rapeseed)	other results
C#CCON=C(C)CC1CC(O)=C(c2c(C)cc(C)cc2C)C1=O (centres unmarked) [1-019]	5 (Herbicidal ratio of 90% or more (almost completely withered))	2 (Herbicidal ratio of 20% or higher and lower than 40%)	5 (Herbicidal ratio of 90% or more (almost completely withered))	5 (Herbicidal ratio of 90% or more (almost completely withered))	4 (Herbicidal ratio of 70% or higher and lower than 90%)	5 (Herbicidal ratio of 90% or more (almost completely withered))	4 (Herbicidal ratio of 70% or higher and lower than 90%)	5 (Herbicidal ratio of 90% or more (almost completely withered))	5 (Herbicidal ratio of 90% or more (almost completely withered))	4 (Herbicidal ratio of 70% or higher and lower than 90%)	4 (Herbicidal ratio of 70% or higher and lower than 90%)	5 (Herbicidal ratio of 90% or more (almost completely withered))	3 (Herbicidal ratio of 40% or higher and lower than 70%)	–	–	–	–	–	–	–	–
CC(CC1CC(O)=C(c2c(C)cc(C)cc2C)C1=O)=NOCc1ccccc1 (centres unmarked) [1-020]	5 (Herbicidal ratio of 90% or more (almost completely withered))	4 (Herbicidal ratio of 70% or higher and lower than 90%)	3 (Herbicidal ratio of 40% or higher and lower than 70%)	4 (Herbicidal ratio of 70% or higher and lower than 90%)	1 (Herbicidal ratio of 5% or higher and lower than 20%)	5 (Herbicidal ratio of 90% or more (almost completely withered))	4 (Herbicidal ratio of 70% or higher and lower than 90%)	5 (Herbicidal ratio of 90% or more (almost completely withered))	5 (Herbicidal ratio of 90% or more (almost completely withered))	4 (Herbicidal ratio of 70% or higher and lower than 90%)	4 (Herbicidal ratio of 70% or higher and lower than 90%)	1 (Herbicidal ratio of 5% or higher and lower than 20%)	0 (Herbicidal ratio of 5% or lower (almost no effect))	–	–	–	–	–	–	–	–
CON=C(C)C(C(C)=NOC)C1CC(O)=C(c2c(C)cc(C)cc2C)C1=O (centres unmarked) [1-021]	0 (Herbicidal ratio of 5% or lower (almost no effect))	0 (Herbicidal ratio of 5% or lower (almost no effect))	0 (Herbicidal ratio of 5% or lower (almost no effect))	0 (Herbicidal ratio of 5% or lower (almost no effect))	0 (Herbicidal ratio of 5% or lower (almost no effect))	2 (Herbicidal ratio of 20% or higher and lower than 40%)	0 (Herbicidal ratio of 5% or lower (almost no effect))	1 (Herbicidal ratio of 5% or higher and lower than 20%)	4 (Herbicidal ratio of 70% or higher and lower than 90%)	0 (Herbicidal ratio of 5% or lower (almost no effect))	0 (Herbicidal ratio of 5% or lower (almost no effect))	0 (Herbicidal ratio of 5% or lower (almost no effect))	0 (Herbicidal ratio of 5% or lower (almost no effect))	–	–	–	–	–	–	–	–
CON=C(C)CC1CC(OC(=O)SC(C)(C)C)=C(c2c(C)cc(-c3ccc(Cl)cc3)cc2C)C1=O (centres unmarked) [6-082]	4 (Herbicidal ratio of 70% or higher and lower than 90%)	4 (Herbicidal ratio of 70% or higher and lower than 90%)	3 (Herbicidal ratio of 40% or higher and lower than 70%)	–	–	–	–	–	–	–	–	–	–	5 (Herbicidal ratio of 90% or more (almost completely withered))	4 (Herbicidal ratio of 70% or higher and lower than 90%)	4 (Herbicidal ratio of 70% or higher and lower than 90%)	–	–	–	–	I: Avena fatua, herbicidal effect grade (Avena fatua): 3 (Herbicidal ratio of 40% or higher and lower than 70%); c: corn, effect on crop grade (corn [3]): 0 (Herbicidal ratio of 5% or lower (almost no effect)); b: directly sowed rice plant, effect on crop grade (rice): 1 (Herbicidal ratio of 5% or higher and lower than 20%); g: rapeseed, effect on crop grade (rapeseed): 0 (Herbicidal ratio of 5% or lower (almost no effect)); F: Digitaria ciliaris, herbicidal effect (criteria of Test Example 1) (Digitaria ciliaris): 5 (Herbicidal ratio of 90% or more (almost completely withered)); c: corn, effect on crop (criteria of Test Example 1) (corn [4]): 5 (Herbicidal ratio of 90% or more (almost completely withered)); d: soybean, effect on crop (criteria of Test Example 1) (soybean): 0 (Herbicidal ratio of 5% or lower (almost no effect))
CON=C(C)CC1CC(OC(=O)N2CCOCC2)=C(c2c(C)cc(-c3ccc(Cl)cc3F)cc2C)C1=O (centres unmarked) [6-089]	3 (Herbicidal ratio of 40% or higher and lower than 70%)	3 (Herbicidal ratio of 40% or higher and lower than 70%)	2 (Herbicidal ratio of 20% or higher and lower than 40%)	–	–	–	–	–	–	–	–	–	–	4 (Herbicidal ratio of 70% or higher and lower than 90%)	3 (Herbicidal ratio of 40% or higher and lower than 70%)	4 (Herbicidal ratio of 70% or higher and lower than 90%)	0 (Herbicidal ratio of 5% or lower (almost no effect))	0 (Herbicidal ratio of 5% or lower (almost no effect))	0 (Herbicidal ratio of 5% or lower (almost no effect))	0 (Herbicidal ratio of 5% or lower (almost no effect))	O: Chenopodium album, herbicidal effect (criteria of Test Example 1) (Chenopodium album): 4 (Herbicidal ratio of 70% or higher and lower than 90%)
CON=C(C)CC1CC(O)=C(c2c(F)cc(Br)cc2OC)C1=O (centres unmarked) [6-096]	0 (Herbicidal ratio of 5% or lower (almost no effect))	0 (Herbicidal ratio of 5% or lower (almost no effect))	0 (Herbicidal ratio of 5% or lower (almost no effect))	–	–	–	–	–	–	–	–	–	–	5 (Herbicidal ratio of 90% or more (almost completely withered))	0 (Herbicidal ratio of 5% or lower (almost no effect))	3 (Herbicidal ratio of 40% or higher and lower than 70%)	3 (Herbicidal ratio of 40% or higher and lower than 70%)	3 (Herbicidal ratio of 40% or higher and lower than 70%)	5 (Herbicidal ratio of 90% or more (almost completely withered))	0 (Herbicidal ratio of 5% or lower (almost no effect))	O: Chenopodium album, herbicidal effect (criteria of Test Example 1) (Chenopodium album): 1 (Herbicidal ratio of 5% or higher and lower than 20%)
